Assay: mn = molality of the nth substance listed, in mol/kg
Conditions: 101 kPa, Liquid; for speed of sound: Linear variable-path acoustic interferometer

CCCCn1cc[n+](C)c1.[Br-] [1-butyl-3-methylimidazolium bromide] + CCO
Conditions	mass density, 298.15 K [kg/m3]	mass density, 303.15 K [kg/m3]	mass density, 308.15 K [kg/m3]	mass density, 313.15 K [kg/m3]	mass density, 318.15 K [kg/m3]	speed of sound, 298.15 K [m/s]	speed of sound, 303.15 K [m/s]	speed of sound, 308.15 K [m/s]	speed of sound, 313.15 K [m/s]	speed of sound, 318.15 K [m/s]
m1 = 0.0271	787.221	782.917	778.581	774.206	769.798	1145.2	1128.3	1111.6	1094.9	1078.3
m1 = 0.0587	789.649	785.356	781.029	776.665	772.267	1147.3	1130.5	1113.8	1097.1	1080.6
m1 = 0.0846	791.567	787.288	782.969	778.613	774.213	1148.6	1131.9	1115.3	1098.6	1082.1
m1 = 0.1257	794.595	790.319	786.01	781.663	777.288	1150.8	1134	1117.4	1101	1084.5
m1 = 0.1587	796.91	792.647	788.343	784.006	779.628	1152.7	1136.1	1119.4	1103	1086.5
m1 = 0.2261	801.67	797.404	793.117	788.795	784.413	1155.8	1139.7	1123.2	1106.8	1090.5
m1 = 0.3162	807.896	803.664	799.393	795.091	790.753	1160.7	1144.3	1128	1111.7	1095.4

CCCCn1cc[n+](C)c1.[Br-] [1-butyl-3-methylimidazolium bromide] + O
Conditions	mass density, 298.15 K [kg/m3]	mass density, 303.15 K [kg/m3]	mass density, 308.15 K [kg/m3]	mass density, 313.15 K [kg/m3]	mass density, 318.15 K [kg/m3]	speed of sound, 298.15 K [m/s]	speed of sound, 303.15 K [m/s]	speed of sound, 308.15 K [m/s]	speed of sound, 313.15 K [m/s]	speed of sound, 318.15 K [m/s]
m1 = 0.0692	1000.44	999.001	997.35	995.472	993.421	1504	1515.9	1526	1534.6	1541.9
m1 = 0.1376	1003.7	1002.2	1000.49	998.581	996.491	1511.3	1522.7	1532.3	1540.4	1546.9
m1 = 0.2697	1009.85	1008.28	1006.54	1004.6	1002.47	1523.1	1533.3	1541.9	1549.1	1555
m1 = 0.6117	1024.93	1023.15	1021.17	1019.01	1016.68	1552.2	1561.7	1568.7	1573.8	1577
m1 = 1.28	1050.92	1048.78	1046.56	1044.14	1041.59	1600.3	1603.5	1605.6	1606.7	1606.9
m1 = 2.133	1078.26	1075.78	1073.14	1070.42	1067.58	1645.9	1644.9	1644.1	1640.6	1637.5
m1 = 3.115	1103.8	1100.98	1098.05	1095.04	1091.93	1682.7	1678.3	1673.3	1667.9	1662
m1 = 5.187	1143.52	1140.26	1136.94	1133.57	1130.13	1724.2	1716	1707.4	1698.6	1689.6
m1 = 7.792	1176.05	1172.57	1169.05	1165.49	1161.9	1741.2	1731.4	1721.3	1711	1700.5

CCCCn1cc[n+](C)c1.[Br-] [1-butyl-3-methylimidazolium bromide] + CO
Conditions	mass density, 298.15 K [kg/m3]	mass density, 303.15 K [kg/m3]	mass density, 308.15 K [kg/m3]	mass density, 313.15 K [kg/m3]	mass density, 318.15 K [kg/m3]	speed of sound, 298.15 K [m/s]	speed of sound, 303.15 K [m/s]	speed of sound, 308.15 K [m/s]	speed of sound, 313.15 K [m/s]	speed of sound, 318.15 K [m/s]
m1 = 0.0473	790.393	785.688	780.958	776.204	771.426	–	1090.5	1074.3	1058.2	1042.3
m1 = 0.0767	792.789	788.091	783.371	778.627	773.86	–	1092.6	1076.5	1060.5	1044.7
m1 = 0.1497	798.175	793.495	788.794	784.073	779.323	1114.1	1098	1081.9	1066	1050.2
m1 = 0.2612	806.303	801.654	796.988	792.294	787.582	1121.7	1105.7	1089.7	1073.9	1058.2
m1 = 0.3434	812.207	807.572	802.921	798.249	793.553	1127.1	1111.1	1095.2	1079.4	1063.8
m1 = 0.4912	822.389	817.794	813.177	808.542	803.883	1136.4	1120.6	1104.8	1089.2	1073.8
m1 = 0.7273	837.955	833.402	828.837	824.253	819.66	1151	1135.4	1119.9	1104.5	1089.2
m1 = 0.9756	852.578	848.25	843.727	839.188	834.634	1164.1	1148.7	1133.4	1118.2	1103.1
m1 = 1.405	876.422	871.97	867.512	863.046	858.563	1186.2	1171	1156	1141	1126.3
m1 = 2.446	924.879	920.559	916.245	911.924	907.596	1233.3	1218.8	1204.4	1190.1	1175.9
m1 = 3.896	976.589	972.412	968.238	964.059	959.889	1287.4	1273.5	1259.7	1246	1232.5
